Results on 29 molecules are retold here after US9822118B2, “Bicyclic heteroaryl urea, thiourea, guanidine and cyanoguanidine compounds as TrkA kinase inhibitors” (Array BioPharma Inc., priority 2012, dated 2017).

The assay has as its target T1, recombinant human TrkA (Homo sapiens, UniProt P04629).
T1 construct: 6HIS tagged cytoplasmic domain from Invitrogen, Catalog No. PV3144; purchased Invitrogen PV3144
The assay is described as follows: TrkA LanthaScreen Eu Kinase Binding Assay. Conditions: averaged IC50; TR-FRET binding assay, 60 min at 22° C.; read-out: TrkA Enzyme IC50. As to the method: TrkA binding activity was determined in a TrkA LanthaScreen™ Eu Kinase Binding Assay. 5 nM His-tagged recombinant human TrkA (6HIS tagged cytoplasmic domain from Invitrogen, Catalog No. PV3144) was incubated with 4 nM Alexa-Fluor® Tracer 236 (Invitrogen Cat. No. PV5592), 2 nM biotinylated anti-His (Invitrogen Cat. No. PV6090), and 2 nM europium-labeled Streptavidin (Invitrogen Cat. No. PV5899), in buffer (25 mM MOPS, pH 7.5, 5 mM MgCl2, 0.005% Triton X-100). Three fold serial dilutions of compounds of the invention in DMSO were added to a final percentage of 2% DMSO. After 60-minute incubation at 22° C., the reaction was measured using the EnVision multimode plate reader (PerkinElmer) via TR-FRET dual wavelength detection at […]. The percent of control was calculated using a ratiometric emission factor. The IC50 values were determined by fitting a four parameter model to the percent of control data.
Table A provides averaged IC50 values for compounds of the invention when tested in the assay of Example A, where A represents an averaged IC50 value <100 nM; and B represents an averaged IC50 value from 100 to 1,000 nM.
In general terms: Time-resolved FRET reads energy transfer from a long-lived donor to a nearby acceptor.

pIC50: −log10 of the molar value.

T1 sequence (P04629 440-796 limits assumed): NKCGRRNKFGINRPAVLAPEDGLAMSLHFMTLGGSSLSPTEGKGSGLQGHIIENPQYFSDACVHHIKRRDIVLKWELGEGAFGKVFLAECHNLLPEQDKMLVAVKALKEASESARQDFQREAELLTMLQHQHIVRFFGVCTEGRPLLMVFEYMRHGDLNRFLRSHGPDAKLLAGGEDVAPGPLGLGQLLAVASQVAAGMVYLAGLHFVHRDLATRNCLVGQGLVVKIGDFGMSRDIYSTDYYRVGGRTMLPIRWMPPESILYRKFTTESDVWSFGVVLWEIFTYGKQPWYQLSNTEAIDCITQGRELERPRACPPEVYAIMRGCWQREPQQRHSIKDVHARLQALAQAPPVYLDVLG

Regarding `Cc1nccn2c(NC(=O)Nc3c4c(nn3-c3ccccc3)CCC4)c(-c3ccccc3)nc12` [Example 1, 1-(8-methyl-2-phenylimidazo[1,2-a]pyrazin-3-yl)-3-(2-phenyl-2,4,5,6-tetrahydrocyclopenta[c]pyrazol-3-yl)urea], the pIC50 was greater than 7.00.

With `CCOc1nn(-c2ccccc2)c(NC(=O)Nc2c(-c3ccccc3)nc3c(C)nccn23)c1C` [Example 2, 1-(3-ethoxy-4-methyl-1-phenyl-1H-pyrazol-5-yl)-3-(8-methyl-2-phenylimidazo[1,2-a]pyrazin-3-yl)urea], the pIC50 was greater than 7.00.

Regarding `CCOc1nn(-c2ccccc2)c(NC(=O)Nc2c(-c3ccccc3)nc3c(C(F)(F)F)cccn23)c1C` [Example 3, 1-(3-ethoxy-4-methyl-1-phenyl-1H-pyrazol-5-yl)-3-(2-phenyl-8-(trifluoromethyl)imidazo[1,2-a]pyridin-3-yl)urea], the pIC50 was greater than 7.00.

As for `CCOc1nn(-c2ccccc2)c(NC(=O)Nc2c(-c3ccccc3)nc3c(Cl)cccn23)c1C` [Example 4, 1-(8-chloro-2-phenylimidazo[1,2-a]pyridin-3-yl)-3-(3-ethoxy-4-methyl-1-phenyl-1H-pyrazol-5-yl)urea], the pIC50 is greater than 7.00.

On to `CCOc1nn(-c2ccccc2)c(NC(=O)Nc2c(-c3ccccc3)nc3ccccn23)c1C` [Example 5, 1-(3-ethoxy-4-methyl-1-phenyl-1H-pyrazol-5-yl)-3-(2-phenylimidazo[1,2-a]pyridin-3-yl)urea], for which the pIC50 was 6.00 to 7.00.

`CCOc1nn(-c2ccccc2)c(NC(=O)Nc2c(-c3ccccc3)nc3c(F)cccn23)c1C` [Example 6, 1-(3-ethoxy-4-methyl-1-phenyl-1H-pyrazol-5-yl)-3-(8-fluoro-2-phenylimidazo[1,2-a]pyridin-3-yl)urea]: the pIC50 was 6.00 to 7.00.

For the molecule `CCOc1nn(-c2ccccc2)c(NC(=O)Nc2c(-c3ccccc3)nc3c(C)cccn23)c1C` [Example 7, 1-(3-ethoxy-4-methyl-1-phenyl-1H-pyrazol-5-yl)-3-(8-methyl-2-phenylimidazo[1,2-a]pyridin-3-yl)urea], the pIC50 was greater than 7.00.

Consider `Cc1nn(-c2ccccc2)c(NC(=O)Nc2c(-c3ccccc3)nc3c(C)nccn23)c1C` [Example 8, 1-(3,4-dimethyl-1-phenyl-1H-pyrazol-5-yl)-3-(8-methyl-2-phenylimidazo[1,2-a]pyrazin-3-yl)urea], for which the pIC50 is greater than 7.00.

For the molecule `Cc1ccc(NC(=O)Nc2c(-c3ccccc3)nc3c(C)nccn23)c(-c2ccccc2)n1` [Example 9, 1-(8-methyl-2-phenylimidazo[1,2-a]pyrazin-3-yl)-3-(6-methyl-2-phenylpyridin-3-yl)urea], the pIC50 was 6.00 to 7.00.

Turning to `Cc1c(OC[C@H](O)CO)nn(-c2ccccc2)c1NC(=O)Nc1c(-c2ccccc2)nc2c(C)cccn12` [Example 10, (R)-1-(3-(2,3-dihydroxypropoxy)-4-methyl-1-phenyl-1H-pyrazol-5-yl)-3-(8-methyl-2-phenylimidazo[1,2-a]pyridin-3-yl)urea], the pIC50 is 6.00 to 7.00.

As for `Cc1c(OC[C@H](C)O)nn(-c2ccccc2)c1NC(=O)Nc1c(-c2ccccc2)nc2c(C)cccn12` [Example 11, (S)-1-(3-(2-hydroxypropoxy)-4-methyl-1-phenyl-1H-pyrazol-5-yl)-3-(8-methyl-2-phenylimidazo[1,2-a]pyridin-3-yl)urea], the negative logarithm of the IC50 (pIC50) is 6.00 to 7.00.

With `Cc1cccn2c(NC(=O)Nc3c4c(nn3-c3ccccc3)CCC4)c(-c3ccccc3)nc12` [Example 12, 1-(8-methyl-2-phenylimidazo[1,2-a]pyridin-3-yl)-3-(2-phenyl-2,4,5,6-tetrahydrocyclopenta[c]pyrazol-3-yl)urea], the pIC50 was greater than 7.00.

As for `O=C(Nc1c2c(nn1-c1ccccc1)CCC2)Nc1c(-c2ccccc2)nc2c(C(F)(F)F)cccn12` [Example 13, 1-(2-phenyl-2,4,5,6-tetrahydrocyclopenta[c]pyrazol-3-yl)-3-(2-phenyl-8-(trifluoromethyl)imidazo[1,2-a]pyridin-3-yl)urea], the negative logarithm of the IC50 (pIC50) is greater than 7.00.

With `Cc1cccn2c(NC(=O)Nc3c4c(nn3-c3ccccc3)COC4)c(-c3ccccc3)nc12` [Example 14, 1-(8-methyl-2-phenylimidazo[1,2-a]pyridin-3-yl)-3-(2-phenyl-4,6-dihydro-2H-furo[3,4-c]pyrazol-3-yl)urea], the pIC50 is greater than 7.00.

Take `CCOc1nn(-c2ccccc2)c(NC(=O)Nc2c(-c3ccccc3)nc3c(Br)cccn23)c1C` [Example 15, 1-(8-bromo-2-phenylimidazo[1,2-a]pyridin-3-yl)-3-(3-ethoxy-4-methyl-1-phenyl-1H-pyrazol-5-yl)urea]: the negative-log IC50 (pIC50) was greater than 7.00.

For the molecule `CCOc1nn(-c2ccccc2)c(NC(=O)Nc2c(-c3ccc(OC)nc3)nc3c(C)cccn23)c1C` [Example 16, 1-(3-ethoxy-4-methyl-1-phenyl-1H-pyrazol-5-yl)-3-(2-(6-methoxypyridin-3-yl)-8-methylimidazo[1,2-a]pyridin-3-yl)urea], the pIC50 is 6.00 to 7.00.

`Cc1cccn2c(NC(=O)Nc3c4c(nn3-c3ccccc3)CS(=O)(=O)C4)c(-c3ccccc3)nc12` [Example 17, 1-(5,5-dioxido-2-phenyl-4,6-dihydro-2H-thieno[3,4-c]pyrazol-3-yl)-3-(8-methyl-2-phenylimidazo[1,2-a]pyridin-3-yl)urea]: the pIC50 is greater than 7.00.

For `O=C(Nc1c2c(nn1-c1ccccc1)CS(=O)(=O)C2)Nc1c(-c2ccccc2)nc2c(C(F)(F)F)cccn12` [Example 18, 1-(5,5-dioxido-2-phenyl-4,6-dihydro-2H-thieno[3,4-c]pyrazol-3-yl)-3-(2-phenyl-8-(trifluoromethyl)imidazo[1,2-a]pyridin-3-yl)urea], the pIC50 is greater than 7.00.

Consider `Cc1cccn2c(NC(=O)Nc3c4c(nn3-c3ccccc3)CCCC4)c(-c3ccccc3)nc12` [Example 19, 1-(8-methyl-2-phenylimidazo[1,2-a]pyridin-3-yl)-3-(2-phenyl-4,5,6,7-tetrahydro-2H-indazol-3-yl)urea], for which the pIC50 was greater than 7.00.

Turning to `O=C(Nc1c2c(nn1-c1ccccc1)CCCC2)Nc1c(-c2ccccc2)nc2c(C(F)(F)F)cccn12` [Example 20, 1-(2-phenyl-4,5,6,7-tetrahydro-2H-indazol-3-yl)-3-(2-phenyl-8-(trifluoromethyl)imidazo[1,2-a]pyridin-3-yl)urea], the pIC50 is greater than 7.00.

Consider `COc1nn(-c2ccccc2)c(NC(=O)Nc2c(-c3ccccc3)nc3c(C)cccn23)c1C` [Example 21, 1-(3-methoxy-4-methyl-1-phenyl-1H-pyrazol-5-yl)-3-(8-methyl-2-phenylimidazo[1,2-a]pyridin-3-yl)urea], for which the pIC50 is greater than 7.00.

Take `COc1nn(-c2ccccc2)c(NC(=O)Nc2c(-c3ccccc3)nc3c(C(F)(F)F)cccn23)c1C` [Example 22, 1-(3-methoxy-4-methyl-1-phenyl-1H-pyrazol-5-yl)-3-(2-phenyl-8-(trifluoromethyl)imidazo[1,2-a]pyridin-3-yl)urea]: the pIC50 was greater than 7.00.

Regarding `CCOc1nn(-c2ccccc2)c(NC(=O)Nc2c(-c3ccc(OC)cc3)nc3c(C)cccn23)c1C` [Example 23, 1-(3-ethoxy-4-methyl-1-phenyl-1H-pyrazol-5-yl)-3-(2-(4-methoxyphenyl)-8-methylimidazo[1,2-a]pyridin-3-yl)urea], the pIC50 is 6.00 to 7.00.

For `COc1ccc(-c2nc3c(C)cccn3c2NC(=O)Nc2c3c(nn2-c2ccccc2)CS(=O)(=O)C3)cc1` [Example 24, 1-(5,5-dioxido-2-phenyl-4,6-dihydro-2H-thieno[3,4-c]pyrazol-3-yl)-3-(2-(4-methoxyphenyl)-8-methylimidazo[1,2-a]pyridin-3-yl)urea], the pIC50 is 6.00 to 7.00.

Take `Cc1c(OCC(CO)CO)nn(-c2ccccc2)c1NC(=O)Nc1c(-c2ccccc2)nc2c(C(F)(F)F)cccn12` [Example 25, 1-(3-(3-hydroxy-2-(hydroxymethyl)propoxy)-4-methyl-1-phenyl-1H-pyrazol-5-yl)-3-(2-phenyl-8-(trifluoromethyl)imidazo[1,2-a]pyridin-3-yl)urea]: the pIC50 was greater than 7.00.

In the case of `Cc1c(OCC(C)(C)O)nn(-c2ccccc2)c1NC(=O)Nc1c(-c2ccccc2)nc2c(C(F)(F)F)cccn12` [Example 26, 1-(3-(2-hydroxy-2-methylpropoxy)-4-methyl-1-phenyl-1H-pyrazol-5-yl)-3-(2-phenyl-8-(trifluoromethyl)imidazo[1,2-a]pyridin-3-yl)urea], the negative logarithm of the IC50 (pIC50) is greater than 7.00.

`Cc1c(OC[C@@H](C)O)nn(-c2ccccc2)c1NC(=O)Nc1c(-c2ccccc2)nc2c(C(F)(F)F)cccn12` [Example 27, (R)-1-(3-(2-hydroxypropoxy)-4-methyl-1-phenyl-1H-pyrazol-5-yl)-3-(2-phenyl-8-(trifluoromethyl)imidazo[1,2-a]pyridin-3-yl)urea]: the pIC50 was greater than 7.00.

As for `Cc1c(OC[C@H](O)CO)nn(-c2ccccc2)c1NC(=O)Nc1c(-c2ccccc2)nc2c(C(F)(F)F)cccn12` [Example 28, (R)-1-(3-(2,3-dihydroxypropoxy)-4-methyl-1-phenyl-1H-pyrazol-5-yl)-3-(2-phenyl-8-(trifluoromethyl)imidazo[1,2-a]pyridin-3-yl)urea], the pIC50 was greater than 7.00.

As for `Cc1c(OC[C@@H](O)CO)nn(-c2ccccc2)c1NC(=O)Nc1c(-c2ccccc2)nc2c(C(F)(F)F)cccn12` [Example 29, (S)-1-(3-(2,3-dihydroxypropoxy)-4-methyl-1-phenyl-1H-pyrazol-5-yl)-3-(2-phenyl-8-(trifluoromethyl)imidazo[1,2-a]pyridin-3-yl)urea], the negative-log IC50 (pIC50) is greater than 7.00.

One may read the pIC50 as the IC50 on a negative log10 scale, so that one unit is a factor of ten.
